Legend:
κ-opiate = κ-opiate (Rattus norvegicus, UniProt P34975); test: Receptor binding κ-opiate; conditions: radioligand [3H]-U 69593, read-out: Ki(nM) Compound 1
Procedure: (§1) Receptor binding data were obtained by CEREP (128, rue Danton, 92500 Rueil-Malmaison, France) or at Solvay Pharmaceuticals B.V., using well documented standard procedures. Affinity for 5-HT1A receptors for instance, was determined by testing the ability of the compounds of the invention to displace [^3H]-2-(di-n-propylamino)-8-hydroxytetralin ([^3H]-8-OH-DPAT) from its specific binding sites in rat frontal cortex homogenates. This test is based on the method described by Gozlan et al. (Nature, 305, (1983), pages 140-142).
(§2) The binding data collected in the table below were either obtained by CEREP (128, rue Danton, 92500 Rueil-Malmaison, France) or at Solvay Pharmaceuticals B.V., using well documented standard procedures.

BDNF = test: Induction of growth factors: BDNF RNA in brain areas by quantitative PCR; assay type: in vivo; conditions: 3 mg/kg p.o. once daily, 3 weeks
Procedure: Compounds of the invention (3 mg/kg, p.o.) or vehicle are administered once daily during a period of 3 weeks (n=8 animals per treatment group). 24 hours after the last dose the animals are sacrificed (using CO2/O2 anesthesia), the brains are removed and the dissected. RNA is extracted from the individual brain samples and induction of the growth factors BDNF and GDNF is determined by quantitative PCR. Total RNA is isolated with the Trizol method (Invitrogen) from the brain pieces. cDNA is made starting with 2 μg of total RNA (pretreated for 30 min with DNAse (Ambion) in first strand buffer) using the reverse transcriptase Superscript II (Invitrogen). Quantification of […] by real time PCR makes use of the observation that the early cycles of PCR are characterized by an exponential increase in target amplification. The accumulation of PCR product is measured using Sybergreen II. Primers are designed using the software package Primer Express (Applied Biosystems). Expression levels of the housekeeping genes ornithine decarboxylase (ODC_ex8) and alpha tubulin (TUBA) used for normalization and as control for good cDNA synthesis.

α1B-adrenergic = α1B-adrenergic (Rattus norvegicus, UniProt P15823); test: Receptor binding α1B-adrenergic; conditions: radioligand [3H]-prazosin, read-out: Ki(nM) Compound 1
Chain of α1B-adrenergic (P15823 whole entry): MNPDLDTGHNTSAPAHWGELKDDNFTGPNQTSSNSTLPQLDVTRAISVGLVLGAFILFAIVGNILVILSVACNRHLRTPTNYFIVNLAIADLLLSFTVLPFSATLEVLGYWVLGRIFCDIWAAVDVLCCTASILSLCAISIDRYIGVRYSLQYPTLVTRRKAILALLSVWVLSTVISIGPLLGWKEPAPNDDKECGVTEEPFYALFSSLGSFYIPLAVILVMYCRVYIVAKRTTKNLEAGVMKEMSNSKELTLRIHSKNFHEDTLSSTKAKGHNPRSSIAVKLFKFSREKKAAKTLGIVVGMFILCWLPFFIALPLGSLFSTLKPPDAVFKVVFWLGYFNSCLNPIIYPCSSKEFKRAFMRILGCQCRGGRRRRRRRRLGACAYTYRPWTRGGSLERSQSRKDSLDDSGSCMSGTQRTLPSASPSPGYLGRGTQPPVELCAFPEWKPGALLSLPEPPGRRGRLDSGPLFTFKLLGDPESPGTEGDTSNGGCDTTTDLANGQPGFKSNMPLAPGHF
Procedure: as §1, §2

5-HT6 = 5-HT6 (Homo sapiens, UniProt P50406); test: Receptor binding 5-HT6; conditions: radioligand [3H]-LSD, read-out: Ki(nM) Compound 1
Procedure: as §1, §2

Neurokinin-NK3 = Neurokinin-NK3 (Homo sapiens, UniProt P29371); test: Receptor binding Neurokinin-NK3; conditions: radioligand [3H]-SR 142801, read-out: Ki(nM) Compound 1
Chain of Neurokinin-NK3 (P29371 whole entry): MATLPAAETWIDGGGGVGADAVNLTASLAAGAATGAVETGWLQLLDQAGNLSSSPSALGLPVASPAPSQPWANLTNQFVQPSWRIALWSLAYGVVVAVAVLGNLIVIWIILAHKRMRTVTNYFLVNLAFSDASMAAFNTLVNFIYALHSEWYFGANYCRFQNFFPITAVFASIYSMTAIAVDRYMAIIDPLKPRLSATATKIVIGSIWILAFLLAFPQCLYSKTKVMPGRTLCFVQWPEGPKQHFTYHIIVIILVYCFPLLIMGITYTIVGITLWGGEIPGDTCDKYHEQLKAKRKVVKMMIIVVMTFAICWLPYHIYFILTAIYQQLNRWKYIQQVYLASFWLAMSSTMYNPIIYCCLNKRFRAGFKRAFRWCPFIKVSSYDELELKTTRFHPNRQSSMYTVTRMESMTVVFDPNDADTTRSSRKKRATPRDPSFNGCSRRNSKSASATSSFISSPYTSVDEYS
Procedure: as §1, §2

Dopamine-D1 = Dopamine-D1 (Homo sapiens, UniProt P21728); test: Receptor binding Dopamine-D1; conditions: radioligand [3H]-SCH 23390, read-out: Ki(nM) Compound 1
Chain of Dopamine-D1 (P21728 whole entry): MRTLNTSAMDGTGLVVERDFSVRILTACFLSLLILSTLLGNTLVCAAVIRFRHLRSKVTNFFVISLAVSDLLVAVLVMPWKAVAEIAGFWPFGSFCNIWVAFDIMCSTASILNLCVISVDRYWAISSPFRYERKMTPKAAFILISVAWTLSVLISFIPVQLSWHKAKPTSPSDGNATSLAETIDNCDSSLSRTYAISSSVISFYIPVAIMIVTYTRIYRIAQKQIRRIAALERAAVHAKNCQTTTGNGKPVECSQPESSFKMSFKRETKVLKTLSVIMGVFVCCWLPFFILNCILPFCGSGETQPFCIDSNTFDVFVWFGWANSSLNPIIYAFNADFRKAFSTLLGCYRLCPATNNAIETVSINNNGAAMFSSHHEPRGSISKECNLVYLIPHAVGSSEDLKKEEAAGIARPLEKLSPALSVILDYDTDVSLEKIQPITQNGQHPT
Procedure: as §1, §2

Muscarine-M2 = Muscarine-M2 (Homo sapiens, UniProt P08172); test: Receptor binding Muscarine-M2; conditions: radioligand [3H]-AFDX-384, read-out: Ki(nM) Compound 1
Procedure: as §1, §2

5-HT2C = 5-HT2C (Homo sapiens, UniProt P28335); test: Receptor binding 5-HT2C; conditions: radioligand [125I]-DOI, read-out: Ki(nM) Compound 1
Chain of 5-HT2C (P28335 33-458): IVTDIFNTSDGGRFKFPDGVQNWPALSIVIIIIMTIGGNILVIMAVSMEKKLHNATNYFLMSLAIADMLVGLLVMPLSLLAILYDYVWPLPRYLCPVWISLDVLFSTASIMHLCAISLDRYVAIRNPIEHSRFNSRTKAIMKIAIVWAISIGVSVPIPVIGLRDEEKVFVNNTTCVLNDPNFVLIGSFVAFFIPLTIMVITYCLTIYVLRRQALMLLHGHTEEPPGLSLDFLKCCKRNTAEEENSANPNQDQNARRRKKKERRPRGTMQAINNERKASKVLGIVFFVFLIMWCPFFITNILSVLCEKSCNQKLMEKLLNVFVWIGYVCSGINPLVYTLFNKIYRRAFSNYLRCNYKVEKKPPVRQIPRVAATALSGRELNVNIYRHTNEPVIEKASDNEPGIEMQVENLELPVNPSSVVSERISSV
Procedure: as §1, §2

PACAP = PACAP (Rattus norvegicus, UniProt P32215); test: Receptor binding PACAP; conditions: radioligand [125I]-PACAP 1-27, read-out: Ki(nM) Compound 1
Chain of PACAP (P32215 20-523): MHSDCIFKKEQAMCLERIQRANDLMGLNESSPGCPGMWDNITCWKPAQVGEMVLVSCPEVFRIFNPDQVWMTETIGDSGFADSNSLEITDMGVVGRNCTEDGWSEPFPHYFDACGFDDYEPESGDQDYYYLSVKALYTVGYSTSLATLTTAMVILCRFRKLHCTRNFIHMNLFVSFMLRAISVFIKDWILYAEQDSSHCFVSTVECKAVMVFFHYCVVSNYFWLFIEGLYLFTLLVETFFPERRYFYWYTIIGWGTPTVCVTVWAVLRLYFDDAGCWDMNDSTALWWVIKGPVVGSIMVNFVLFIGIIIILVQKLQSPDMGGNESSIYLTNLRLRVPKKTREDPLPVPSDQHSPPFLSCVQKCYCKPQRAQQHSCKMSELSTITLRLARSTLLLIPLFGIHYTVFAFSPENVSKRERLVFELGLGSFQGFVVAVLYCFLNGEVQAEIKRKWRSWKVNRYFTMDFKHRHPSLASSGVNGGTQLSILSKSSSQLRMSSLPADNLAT
Procedure: as §1, §2

Adenosine-A2A = Adenosine-A2A (Homo sapiens, UniProt P29274); test: Receptor binding Adenosine-A2A; conditions: radioligand [3H]-CGS 21680, read-out: Ki(nM) Compound 1
Chain of Adenosine-A2A (P29274 whole entry): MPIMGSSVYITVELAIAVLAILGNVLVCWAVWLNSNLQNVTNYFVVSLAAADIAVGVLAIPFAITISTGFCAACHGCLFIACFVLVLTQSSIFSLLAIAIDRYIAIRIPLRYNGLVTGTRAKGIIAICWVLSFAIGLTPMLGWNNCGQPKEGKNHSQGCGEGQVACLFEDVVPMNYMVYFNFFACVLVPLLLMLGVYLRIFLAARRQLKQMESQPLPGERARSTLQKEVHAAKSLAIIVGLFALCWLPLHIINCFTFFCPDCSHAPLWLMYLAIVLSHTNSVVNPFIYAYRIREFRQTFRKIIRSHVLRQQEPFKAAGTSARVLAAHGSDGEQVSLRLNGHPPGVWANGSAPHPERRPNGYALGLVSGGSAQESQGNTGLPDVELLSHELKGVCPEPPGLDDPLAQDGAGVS
Procedure: as §1, §2

GABAB = GABAB (Rattus norvegicus, UniProt Q9Z0U4); test: Receptor binding GABAB; conditions: read-out: Ki(nM) Compound 1
Procedure: as §1, §2

sigma-SG1 = sigma-SG1 (Cavia porcellus, UniProt Q60492); test: Receptor binding sigma-SG1; conditions: radioligand [3H]-pentazocone; guinea pig; read-out: Ki(nM) Compound 1
Procedure: as §1, §2

5-HT5 = 5-HT5 (Homo sapiens, UniProt P47898); test: Receptor binding 5-HT5; conditions: radioligand [3H]-LSD, read-out: Ki(nM) Compound 1
Chain of 5-HT5 (P47898 whole entry): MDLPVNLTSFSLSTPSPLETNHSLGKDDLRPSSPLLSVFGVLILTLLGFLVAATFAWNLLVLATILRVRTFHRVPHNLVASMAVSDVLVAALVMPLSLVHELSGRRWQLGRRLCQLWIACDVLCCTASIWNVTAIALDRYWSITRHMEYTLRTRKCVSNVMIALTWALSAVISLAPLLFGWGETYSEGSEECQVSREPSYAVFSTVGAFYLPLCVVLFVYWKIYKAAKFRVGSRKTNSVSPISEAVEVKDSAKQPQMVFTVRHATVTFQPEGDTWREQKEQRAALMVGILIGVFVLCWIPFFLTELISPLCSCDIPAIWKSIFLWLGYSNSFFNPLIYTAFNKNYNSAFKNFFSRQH
Procedure: as §1, §2

Histamine-H1 = Histamine-H1 (Homo sapiens, UniProt P35367); test: Receptor binding Histamine-H1; conditions: radioligand [3H]-pyrilamine, read-out: Ki(nM) Compound 1
Chain of Histamine-H1 (P35367 whole entry): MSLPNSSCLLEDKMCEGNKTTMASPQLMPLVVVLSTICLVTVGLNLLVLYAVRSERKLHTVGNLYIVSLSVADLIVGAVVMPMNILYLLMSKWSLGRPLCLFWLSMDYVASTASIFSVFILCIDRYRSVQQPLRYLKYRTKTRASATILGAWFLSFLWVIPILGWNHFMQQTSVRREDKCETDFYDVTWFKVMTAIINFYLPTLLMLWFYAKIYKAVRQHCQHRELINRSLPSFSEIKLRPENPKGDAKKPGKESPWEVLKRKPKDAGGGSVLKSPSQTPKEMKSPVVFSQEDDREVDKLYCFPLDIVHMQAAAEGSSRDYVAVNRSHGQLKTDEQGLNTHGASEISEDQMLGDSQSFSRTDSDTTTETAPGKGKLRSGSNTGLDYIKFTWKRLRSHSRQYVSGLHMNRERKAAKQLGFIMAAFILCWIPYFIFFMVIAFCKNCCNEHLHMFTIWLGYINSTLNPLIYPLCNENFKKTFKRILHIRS
Procedure: as §1, §2

Muscarine-M5 = Muscarine-M5 (Homo sapiens, UniProt P08912); test: Receptor binding Muscarine-M5; conditions: radioligand [3H]-4-DAMP, read-out: Ki(nM) Compound 1
Procedure: as §1, §2

Histamine-H3 = Histamine-H3 (Rattus norvegicus, UniProt Q9QYN8); test: Receptor binding Histamine-H3; conditions: radioligand [3H]-α-methylhistamine, read-out: Ki(nM) Compound 1
Procedure: as §1, §2

angiotensin-AT1 = angiotensin-AT1 (Homo sapiens, UniProt P30556); test: Receptor binding angiotensin-AT1; conditions: radioligand [125I]-angiotensin II, read-out: Ki(nM) Compound 1
Chain of angiotensin-AT1 (P30556 whole entry): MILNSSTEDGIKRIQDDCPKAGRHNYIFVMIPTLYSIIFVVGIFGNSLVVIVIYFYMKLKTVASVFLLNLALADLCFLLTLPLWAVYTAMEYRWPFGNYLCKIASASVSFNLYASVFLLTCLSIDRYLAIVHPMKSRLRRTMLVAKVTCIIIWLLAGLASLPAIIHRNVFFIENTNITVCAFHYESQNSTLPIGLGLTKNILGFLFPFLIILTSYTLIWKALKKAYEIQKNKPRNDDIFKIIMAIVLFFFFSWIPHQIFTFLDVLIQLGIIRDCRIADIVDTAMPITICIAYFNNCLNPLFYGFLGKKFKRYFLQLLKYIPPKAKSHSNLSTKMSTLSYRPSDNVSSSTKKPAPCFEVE
Procedure: as §1, §2

Neurokinin-NK2 = Neurokinin-NK2 (Homo sapiens, UniProt P21452); test: Receptor binding Neurokinin-NK2; conditions: radioligand [125I]-neurokininA, read-out: Ki(nM) Compound 1
Procedure: as §1, §2

Muscarine-M3 = Muscarine-M3 (Homo sapiens, UniProt P20309); test: Receptor binding Muscarine-M3; conditions: radioligand [3H]-4-DAMP, read-out: Ki(nM) Compound 1
Procedure: as §1, §2

β1-adrenergic = β1-adrenergic (Homo sapiens, UniProt P08588); test: Receptor binding β1-adrenergic; conditions: radioligand [3H]-CGP 12177, read-out: Ki(nM) Compound 1
Procedure: as §1, §2

5-HT1B = 5-HT1B (Rattus norvegicus, UniProt P28564); test: Receptor binding 5-HT1B; conditions: radioligand [125I]-cyanopindolol, read-out: Ki(nM) Compound 1
Procedure: as §1, §2

Dopamine-D5 = Dopamine-D5 (Homo sapiens, UniProt P21918); test: Receptor binding Dopamine-D5; conditions: radioligand [3H]-SCH 23390, read-out: Ki(nM) Compound 1
Chain of Dopamine-D5 (P21918 whole entry): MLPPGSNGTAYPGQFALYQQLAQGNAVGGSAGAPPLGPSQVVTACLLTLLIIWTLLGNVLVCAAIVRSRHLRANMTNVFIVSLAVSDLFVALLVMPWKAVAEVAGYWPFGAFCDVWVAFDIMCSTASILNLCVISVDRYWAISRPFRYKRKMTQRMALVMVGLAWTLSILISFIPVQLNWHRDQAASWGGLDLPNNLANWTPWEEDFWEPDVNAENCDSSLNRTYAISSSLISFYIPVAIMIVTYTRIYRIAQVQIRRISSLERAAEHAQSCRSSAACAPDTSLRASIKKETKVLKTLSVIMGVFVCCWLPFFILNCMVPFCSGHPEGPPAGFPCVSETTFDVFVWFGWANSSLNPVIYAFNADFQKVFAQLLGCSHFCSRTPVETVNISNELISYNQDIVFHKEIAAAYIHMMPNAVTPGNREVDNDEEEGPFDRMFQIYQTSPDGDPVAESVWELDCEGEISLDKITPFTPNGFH
Procedure: as §1, §2

Neuropeptide Y2 = Neuropeptide Y2 (Homo sapiens, UniProt P49146); test: Receptor binding Neuropeptide Y2; conditions: radioligand [125I]-PYY, read-out: Ki(nM) Compound 1
Chain of Neuropeptide Y2 (P49146 whole entry): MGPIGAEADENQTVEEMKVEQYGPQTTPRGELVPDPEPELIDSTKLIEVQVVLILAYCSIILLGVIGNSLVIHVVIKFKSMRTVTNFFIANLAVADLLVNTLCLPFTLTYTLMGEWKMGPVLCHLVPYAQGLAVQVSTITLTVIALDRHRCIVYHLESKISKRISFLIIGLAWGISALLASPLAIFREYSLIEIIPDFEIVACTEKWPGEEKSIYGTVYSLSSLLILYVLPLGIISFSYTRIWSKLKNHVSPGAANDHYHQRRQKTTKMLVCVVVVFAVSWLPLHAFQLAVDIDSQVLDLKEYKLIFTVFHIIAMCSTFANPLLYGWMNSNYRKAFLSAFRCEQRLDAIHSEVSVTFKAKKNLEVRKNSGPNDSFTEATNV
Procedure: as §1, §2

angiotensin-AT2 = angiotensin-AT2 (Homo sapiens, UniProt P50052); test: Receptor binding angiotensin-AT2; conditions: radioligand [125I]-CPG 42112A, read-out: Ki(nM) Compound 1
Procedure: as §1, §2

Nc1cc2cccc(N3CCNCC3)c2oc1=O [Compound 1, 3-amino-8-(1-piperazinyl)-2H-1-benzopyran-2-one]
Ki (κ-opiate): > 1000 nM
BDNF RNA, fold increase compared to vehicle treatment (BDNF; hippocampus): 2.4 fold
BDNF RNA, fold increase compared to vehicle treatment (BDNF; nucleus accumbens): 5.1 fold
BDNF RNA, fold increase compared to vehicle treatment (BDNF; prefrontal cortex): 2.1 fold
BDNF RNA, fold increase compared to vehicle treatment (BDNF; striatum): 1.8 fold
BDNF RNA, fold increase compared to vehicle treatment (BDNF; thalamus): 2.3 fold
Ki (α1B-adrenergic): > 1000 nM
Ki (5-HT6): > 1000 nM
Ki (Neurokinin-NK3): > 1000 nM
Ki (Dopamine-D1): > 1000 nM
Ki (Muscarine-M2): > 1000 nM
Ki (5-HT2C): > 1000 nM
Ki (PACAP): > 1000 nM
Ki (Adenosine-A2A): > 1000 nM
Ki (GABAB): > 1000 nM
Ki (sigma-SG1): > 1000 nM
Ki (5-HT5): 100 nM
Ki (Histamine-H1): > 1000 nM
Ki (Muscarine-M5): > 1000 nM
Ki (Histamine-H3): > 10000 nM
Ki (angiotensin-AT1): > 1000 nM
Ki (Neurokinin-NK2): > 1000 nM
Ki (Muscarine-M3): > 1000 nM
Ki (β1-adrenergic): 50 nM
Ki (5-HT1B): 2 nM
Ki (Dopamine-D5): > 1000 nM
Ki (Neuropeptide Y2): > 1000 nM
Ki (angiotensin-AT2): > 1000 nM

— patent US20050215551A1, “1-[2H-1-benzopyran-2-one-8-yl]- piperazine derivatives for the treatment of movement disorders” (SOLVAY PHARMACEUTICALS B.V., priority 2004, published 2005)
